Assays:
HL60 cells = experiment: qRT-PCR of Nur77 and NOR1; format: cell-based, human; conditions: HL60, 24 h; 5 µM DDA, 2 µM TO, 2 µM GW, 10 µM 22(R)HC
Method: (§1) Total RNA was extracted from tumor cells or MEFs using an RNA Extraction kit (Qiagen) or Trizol (Invitrogen), respectively, and was quantified with NanoDrop. Complementary DNA (cDNA) synthesis was performed with 1 μg RNA iScript Reverse Transcriptase (Bio-Rad). 25 ng cDNA was amplified using SyBR Supermix (Bio-Rad). RNA expression of the different genes of interest (Supplementary Tables 1, 2) were determined using the ΔΔCT method, where the difference in the threshold cycle (ΔCT) values of the target gene and the housekeeping gene for each sample was normalized to the ΔCT value of the untreated sample.
(§2) Supplementary Fig. 6. […]
(§3) D ata are expressed relative to the control (solvent vehic le). D ata from b, f, g, h, j, p, q ar e the m eans ± S.E.M. of 3 independent experiments performed in triplicate (*P<0.05, **P<0.01, ***P<0.001, t test). Images are representative of 3 independent experim ents.

KG1 cells = experiment: qRT-PCR of Nur77 and NOR1; format: cell-based, human; conditions: KG1, 24 h; 5 µM DDA, 2 µM TO, 2 µM GW, 10 µM 22(R)HC
Method: as §1, §2, §3

B16F10 cells [1] = experiment: RT-qPCR of LXR-responsive genes; format: cell-based, mouse; conditions: 8 h, 2.5 µM DDA, 10 µM 22(R)HC, 1 µM GW, 100 nM TO, vs vehicle
Method: as §1
(§4) Supplementary Fig. 4. a R egulat ion of LXR-responsive genes b y D DA and other k nown LXR
(§5) ligands in B16F10 and SKMEL- 28 cells transfected with s iRN A targeting LXRβ ( siLXRβ) or
(§6) with contro l siRN A scram ble (siSC). Cells were treated for 8 h with either solvent vehicle, 2.5
(§7) µM DD A, 10 µM 22(R) hydrox ycholesterol (22(R)HC), 1 µM GW 3965 (GW ) or 100 nM
(§8) T O901317 (T O). […]

SKMEL-28 cells [2] = experiment: RT-qPCR of LXR-responsive genes; format: cell-based, human; conditions: 8 h, 2.5 µM DDA, 10 µM 22(R)HC, 1 µM GW, 100 nM TO, vs vehicle
Method: as §1, §4, §5, §6, §7, §8

B16F10 cells [3] = experiment: DDA-induced cytotoxicity (cell death); format: cell-based; conditions: B16F10; 5 µM 22(R)HC, 0.5 µM TO, 1 µM GW
Method: (§9) Melanoma cells were seeded into 6-well plates at 60,000 cells per well and AML cells at 250,000 cells/ml. The cells were then treated with control solvent vehicle (1/1000 ethanol in water) or DDA. Where indicated, treated cells were incubated in the presence or absence of each inhibitor for time shown. Cell death was determined by the trypan blue exclusion assay. Cells were scraped and resuspended in trypan blue solution (0.25% (w/v) in PBS) and counted in a Malassez cell under light microscopy. Cell viability was then quantified by counting viable (trypan blue-negative) and dead cells (trypan blue-positive).
(§10) Supplementary Fig. 1. a DDA inhibited m elanom a colony form ation. Melanom a cells were […]
(§11) a 0.5% solution of crystal violet in water and analyzed by microscopy. Images are representative of 5 independent experiments. b Evaluation of DDA-induced cytotoxicity (cytotox) and clonogenicity (clono) inhibition in a subset of human (H) and mouse (M) m elanom a cell lines. T he BRaf status in m elanom a cells lines is shown. […]

SKMEL-28 cells [4] = experiment: DDA-induced cytotoxicity (cell death); format: cell-based; conditions: SKMEL-28; 5 µM 22(R)HC, 0.5 µM TO, 1 µM GW
Method: as §9, §10, §11

B16F10 cells [5] = experiment: Sterol analysis by GC/MS; format: cell-based, mouse; conditions: B16F10, 24 h, 10 µM 22(R)HC, 1 µM GW, 100 nM TO
Method: Sterols in cell homogenates were extracted with a solvent mixture containing chloroform/methanol 2/1 (v/v) spiked with epicoprostanol as the internal standard. Lipids were partitioned in chloroform after the addition of saline and saponified by methanolic potassium hydroxide (0.5 N, 60 °C, 15 min). The fatty acids released were methylated with BF3-methanol (12%, 60 °C, 15 min) to not interfere with the chromatography of sterols. The sterols were re-extracted in hexane and silylated, as described previously. The trimethylsilylether derivatives of the sterols were separated by gas chromatography (GC) (Hewlett–Packard 6890 series) in a medium polarity capillary column RTX-65, (65% diphenyl 35% dimethyl polysiloxane, length 30 m, diameter 0.32 mm, film thickness 0.25 μm (Restesk, Evry, France)). The mass spectrometer (Agilent 5975 inert XL) in series with the GC was set up for the detection of positive ions. Ions were produced in the electron impact mode at 70 eV. Sterols were identified by the fragmentogram in the scanning mode and quantified by selective monitoring of the specific ions after normalization with the internal standard epicoprostanol and calibration with weighed standards. […]
Anal yses were perform ed by GC/MS. f Quantification of sterols accumulated in
m elanom a cells after 24 h treatm ent with 10 µM 22(R) HC, 1 µ M GW , 100 nM T O or solvent
vehicle. […]

O=S(=O)(c1ccccc1)N(CC(F)(F)F)c1ccc(C(O)(C(F)(F)F)C(F)(F)F)cc1 [TO, TO901317]
NOR1 mRNA levels (Fold over control) (HL60 cells): 2.7 fold
Nur77 mRNA levels (Fold over control) (HL60 cells): 0.4 fold
NOR1 mRNA levels (Fold over control) (KG1 cells): 1.1 fold
Nur77 mRNA levels (Fold over control) (KG1 cells): 1.5 fold
ABCA1 mRNA (B16F10 cells [1]; B16F10, siCT): 8.5±1.8 fold
ABCG1 mRNA (B16F10 cells [1]; B16F10, siCT): 1.1±0.3 fold
ABCG5 mRNA (B16F10 cells [1]; B16F10, siCT): 3.6±0.6 fold
ABCG8 mRNA (B16F10 cells [1]; B16F10, siCT): 1.5±0.1 fold
LC3A mRNA (B16F10 cells [1]; B16F10, siCT): 1.0±0.3 fold
LC3B mRNA (B16F10 cells [1]; B16F10, siCT): 1.3±0.1 fold
LDLR mRNA (B16F10 cells [1]; B16F10, siCT): 1.7±0.1 fold
NOR1 mRNA (B16F10 cells [1]; B16F10, siCT): 1.9±0.2 fold
Nur77 mRNA (B16F10 cells [1]; B16F10, siCT): 0.9±0.3 fold
SCD1 mRNA (B16F10 cells [1]; B16F10, siCT): 1.6±0.2 fold
SREBP1 mRNA (B16F10 cells [1]; B16F10, siCT): 3.3±0.1 fold
SULT2b1b mRNA (B16F10 cells [1]; B16F10, siCT): 3.2±0.2 fold
ABCA1 mRNA (B16F10 cells [1]; B16F10, siLXRβ): 2.0±0.4 fold
ABCG1 mRNA (B16F10 cells [1]; B16F10, siLXRβ): 1.0±0.1 fold
ABCG5 mRNA (B16F10 cells [1]; B16F10, siLXRβ): 1.0±0.2 fold
ABCG8 mRNA (B16F10 cells [1]; B16F10, siLXRβ): 1.1±0.2 fold
LC3A mRNA (B16F10 cells [1]; B16F10, siLXRβ): 1.0±0.2 fold
LC3B mRNA (B16F10 cells [1]; B16F10, siLXRβ): 1.2±0.3 fold
LDLR mRNA (B16F10 cells [1]; B16F10, siLXRβ): 1.0±0.2 fold
NOR1 mRNA (B16F10 cells [1]; B16F10, siLXRβ): 0.7±0.3 fold
Nur77 mRNA (B16F10 cells [1]; B16F10, siLXRβ): 0.6±0.2 fold
SCD1 mRNA (B16F10 cells [1]; B16F10, siLXRβ): 0.9±0.1 fold
SREBP1 mRNA (B16F10 cells [1]; B16F10, siLXRβ): 0.9±0.2 fold
SULT2b1b mRNA (B16F10 cells [1]; B16F10, siLXRβ): 1.2±0.3 fold
ABCA1 mRNA (SKMEL-28 cells [2]; SKMEL-28, siCT): 4.2±1.2 fold
ABCG1 mRNA (SKMEL-28 cells [2]; SKMEL-28, siCT): 2.8±0.5 fold
ABCG5 mRNA (SKMEL-28 cells [2]; SKMEL-28, siCT): 3.1±0.5 fold
ABCG8 mRNA (SKMEL-28 cells [2]; SKMEL-28, siCT): 1.5±0.1 fold
LC3A mRNA (SKMEL-28 cells [2]; SKMEL-28, siCT): 0.8±0.1 fold
LC3B mRNA (SKMEL-28 cells [2]; SKMEL-28, siCT): 0.9±0.2 fold
LDLR mRNA (SKMEL-28 cells [2]; SKMEL-28, siCT): 1.0±0.2 fold
NOR1 mRNA (SKMEL-28 cells [2]; SKMEL-28, siCT): 1.7±0.1 fold
Nur77 mRNA (SKMEL-28 cells [2]; SKMEL-28, siCT): 1.1±0.2 fold
SCD1 mRNA (SKMEL-28 cells [2]; SKMEL-28, siCT): 1.8±0.2 fold
SREBP1 mRNA (SKMEL-28 cells [2]; SKMEL-28, siCT): 1.8±0.3 fold
SULT2B1b mRNA (SKMEL-28 cells [2]; SKMEL-28, siCT): 1.8±0.2 fold
ABCA1 mRNA (SKMEL-28 cells [2]; SKMEL-28, siLXRβ): 2.2±0.3 fold
ABCG1 mRNA (SKMEL-28 cells [2]; SKMEL-28, siLXRβ): 1.1±0.2 fold
ABCG5 mRNA (SKMEL-28 cells [2]; SKMEL-28, siLXRβ): 1.1±0.1 fold
ABCG8 mRNA (SKMEL-28 cells [2]; SKMEL-28, siLXRβ): 0.8±0.1 fold
LC3A mRNA (SKMEL-28 cells [2]; SKMEL-28, siLXRβ): 0.9±0.1 fold
LC3B mRNA (SKMEL-28 cells [2]; SKMEL-28, siLXRβ): 0.9±0.1 fold
LDLR mRNA (SKMEL-28 cells [2]; SKMEL-28, siLXRβ): 0.9±0.1 fold
NOR1 mRNA (SKMEL-28 cells [2]; SKMEL-28, siLXRβ): 1.0±0.2 fold
Nur77 mRNA (SKMEL-28 cells [2]; SKMEL-28, siLXRβ): 1.1±0.2 fold
SCD1 mRNA (SKMEL-28 cells [2]; SKMEL-28, siLXRβ): 1.2±0.2 fold
SREBP1 mRNA (SKMEL-28 cells [2]; SKMEL-28, siLXRβ): 1.3±0.2 fold
SULT2B1b mRNA (SKMEL-28 cells [2]; SKMEL-28, siLXRβ): 1.3±0.2 fold
cell death (B16F10 cells [3]): no impact on cell death
cell death (SKMEL-28 cells [4]): no impact on cell death
Sterol amount/total sterol: 8-DHC (B16F10 cells [5]): 0.04± 0.005
Sterol amount/total sterol: zymostenol (B16F10 cells [5]): 0.12± 0.09
